Earlier results in patent US20230020217A1, “HEPES-CONTAINING MEDIUM” (AJINOMOTO CO., INC., priority 2020, published 2023).

Conditions: when exposed to light for a long time (Zigler et al. 1985)

O=S(=O)(O)CCN1CCN(CCO)CC1 [HEPES, 4-(2-hydroxyethyl)-1-piperazineethanesulfonic acid]
toxicity: toxicity derived from hydrogen peroxide
